According to patent publication US4456611A, “Derivatives of 2-[3-(3-indoly)2-amino propionyloxy] acetic acid, and seritoning increasing use thereof” (Laboratoires Panmedica, priority 1981, dated 1984):

tested on: endogenous serotonin in the brain; test: biochemical assay of endogenous serotonin in the brain of rats after oral administration of a single dose; assay type: in vivo; conditions: orally, single dose of 10 mg/kg, Wistar male adult rats
Description: The compounds according to the invention show remarkable pharmacological activities, in particular on the central nervous system. These assays were carried out after administration orally of a single dose of 10 mg/kg in Wistar male adult rats.

Question: With `N[C@@H](Cc1c[nH]c2ccc(O)cc12)C(=O)O` [(L)5 HTP, 5-hydroxy-tryptophane, reference compound] as the molecule, how does the “% increase of brain serotonin” value read?
Answer: Its value is 10%.

Question: For `CCOC(=O)COC(=O)[C@@H](N)Cc1c[nH]c2ccc(O)cc12` [Example 6b, Ethyl L-2-[3-(5-hydroxy 3-indolyl) 2-aminopropionyloxy]acetate], which “% increase of brain serotonin” value is on record?
Answer: Its value is 22%.

Question: With `CCCCOC(=O)COC(=O)[C@@H](N)Cc1c[nH]c2ccc(O)cc12` [Example 8b, n-butyl L-2-[3-(5-hydroxy 3-indolyl) 2-aminopropionyloxy]acetate] as the molecule, how does the “% increase of brain serotonin” value read?
Answer: The value was 20%.

Question: With `CCCCCCCCOC(=O)COC(=O)[C@@H](N)Cc1c[nH]c2ccc(O)cc12` [Example 12b, n-octyl L-2-[3-(5-hydroxy 3-indolyl) 2-aminopropionyloxy]acetate] as the molecule, how does the “% increase of brain serotonin” value read?
Answer: Its value is 15%.

Question: With `CCCCCCCCCCCCOC(=O)COC(=O)[C@@H](N)Cc1c[nH]c2ccc(O)cc12` [Example 13b, n-dodecyl L-2-[3-(5-hydroxy 3-indolyl) 2-aminopropionyloxy]acetate] as the molecule, how does the “% increase of brain serotonin” value read?
Answer: Its value is 26%.

Question: Which “% increase of brain serotonin” value does the source give for `CC(OC(=O)COC(=O)[C@@H](N)Cc1c[nH]c2ccc(O)cc12)C(C)(C)C` (stereo partly drawn) [Example 14c, (3,3-dimethyl) 2-butyl L-2-[3-(5-hydroxy 3-indolyl) 2-aminopropionyloxy]acetate] here?
Answer: Its value is 32%.

Question: Which “% increase of brain serotonin” value does the source give for `N[C@@H](Cc1c[nH]c2ccc(O)cc12)C(=O)OCC(=O)OCC12CC3CC(CC(C3)C1)C2` [Example 15b, 1-adamantyl methyl L-2-[3-(5-hydroxy 3-indolyl) 2-aminopropionyloxy]acetate] here?
Answer: The value was 17%.

tested on: not listed separately; test: acute toxicity in the mouse (LD50); conditions: in vivo, po, orally
Description: The acute toxicities of the derivatives according to the invention in the mouse are very much less than those of L 5-HTP. Thus the LD50's of all of the compounds according to the invention are higher than 1250 mg/kg, whereas the LD50 (orally) of L 5-HTP is equal to 700 mg/kg.

Question: Which LD50 does the source give for `N[C@@H](Cc1c[nH]c2ccc(O)cc12)C(=O)O` [(L)5 HTP, 5-hydroxy-tryptophane, reference compound] here?
Answer: Its LD50 is 700 mg/kg.
